Measurements from patent publication US20040006002A1, “Methods and compositions for treating flaviviruses and pestiviruses using 4'-modified nucleoside” (priority 2001, published 2004).

Tests used:
[1] = Cytotoxicity assay (sulforhodamine B, 4 days); format: cell-based; conditions: bovine; MDBK cells, 4 days incubation, concentration reducing cell number by 50%; preliminary results
Description: (§1) The test compounds were dissolved in DMSO at an initial concentration of 200 μM and then were serially diluted in culture medium.
(§2) Cells are seeded at a rate of between 5×10^3 and 5×10^4/well into 96-well plates in growth medium overnight at 37° C. in a humidified CO2 (5%) atmosphere. New growth medium containing serial dilutions of the drugs is then added. After incubation for 4 days, cultures are fixed in 50% TCA and stained with sulforhodamineB. The optical density was read at 550 nm. The cytotoxic concentration was expressed as the concentration required to reduce the cell number by 50% (CC50).

BVDV (strain NADL) = test: Cell Protection Assay (CPA), BVDV-infected MDBK cells; format: cell-based, Bovine Viral Diarrhea virus; conditions: MOI 0.02, MDBK cells, four days post-infection, 50% reduction of cytopathic effect
Description: as §1
(§3) The assay is performed essentially as described by Baginski, S. G.; Pevear, D. C.; Seipel, M.; Sun, S. C. C.; Benetatos, C. A.; Chunduru, S. K.; Rice, C. M. and M. S. Collett “Mechanism of action of a pestivirus antiviral compound” PNAS USA 2000, 97(14), 7981-7986. MDBK cells (ATCC) are seeded onto 96-well culture plates (4,000 cells per well) 24 hours before use. After infection with BVDV (strain NADL, ATCC) at a multiplicity of infection (MOI) of 0.02 plaque forming units (PFU) per cell, serial dilutions of test compounds are added to both infected and uninfected cells in a final concentration of 0.5% DMSO in growth medium. Each dilution is tested in quadruplicate. Cell densities and virus inocula are adjusted to ensure continuous cell growth throughout the experiment and to achieve more than 90% virus-induced cell destruction in the untreated controls after four days post-infection. After four days, plates are fixed with 50% TCA and stained with sulforhodamine B. The optical density of the wells is read in a microplate reader at 550 nm. The 50% effective concentration (EC50) values are defined as the compound concentration that achieved 50% reduction of cytopathic effect of the virus.

[2] = Cell Protection Assay (CPA), uninfected cells (cytotoxicity); format: cell-based; conditions: bovine, uninfected MDBK cells, Table 2, Cell Protection Assay
Description: as §2, §3

MDBK = test: Cytotoxicity assay (sulforhodamine B, 4 days); format: cell-based; conditions: MDBK cells, 4 days incubation, concentration reducing cell number by 50%; preliminary results
Description: as §1, §2

MDBK cells = test: Cell Protection Assay (CPA), uninfected cells (cytotoxicity); format: cell-based; conditions: Table 2, Cell Protection Assay
Description: as §2, §3

[3] = Bovine viral diarrhea virus isolates and strains, 96 h

SMILES: C[C@]1(CO)O[C@@H](n2ccc(=S)[nH]c2=O)[C@H](O)[C@@H]1O [β-D-4'-CH3-ribo-4-thioU, 1-(4-C-methyl-β-D-ribofuranosyl)4-thio-uracil]
- CC50 at 4 days [1]: > 250 µM
- EC50 (BVDV (strain NADL); [3]): > 250 µM
- CC50 at 4 days [2]: > 250 µM
- melting point: 65 to 70 °C (dec.)

SMILES: C[C@]1(CO)O[C@@H](n2cc(F)c(=O)[nH]c2=O)[C@H](O)[C@@H]1O [β-D-4'-CH3-ribo-5-fluoroU]
- CC50 (MDBK): > 167 µM
- EC50 (BVDV (strain NADL)): > 167 µM
- CC50 (MDBK cells): > 167 µM

SMILES: C[C@]1(CO)O[C@@H](n2cnc3c(N)ncnc32)[C@H](O)[C@@H]1O [β-D-4'-CH3-riboA, 9-(4-C-methyl-β-D-ribofuranosyl) adenine]
- CC50 at 4 days [1]: > 250 µM
- EC50 (BVDV (strain NADL); [3]): > 250 µM
- CC50 at 4 days [2]: > 250 µM
- melting point: 96 to 97 °C (dec.)

SMILES: C[C@]1(CO)O[C@@H](n2ccc(N)nc2=O)[C@H](O)[C@@H]1O [β-D-4'-CH3-riboC, 1-(4-C-methyl-β-D-ribofuranosyl)cytosine]
- CC50 at 4 days [1]: > 250 µM
- EC50 (BVDV (strain NADL); [3]): 9 µM
- CC50 at 4 days [2]: > 250 µM

SMILES: C[C@]1(CO)O[C@@H](n2cnc3c(=O)[nH]c(N)nc32)[C@H](O)[C@@H]1O [β-D-4'-CH3-riboG, 9-(4-C-methyl-β-D-ribofuranosyl) guanine]
- CC50 at 4 days [1]: > 250 µM
- EC50 (BVDV (strain NADL); [3]): 43 µM
- CC50 at 4 days [2]: > 250 µM

SMILES: Cc1cn([C@@H]2O[C@](C)(CO)[C@@H](O)[C@H]2O)c(=O)[nH]c1=O [β-D-4'-CH3-riboT, 1-(4-C-methyl-β-D-ribofuranosyl)thymine]
- CC50 at 4 days [1]: > 250 µM
- EC50 (BVDV (strain NADL); [3]): > 250 µM
- CC50 at 4 days [2]: > 250 µM
- melting point: 258 to 260 °C (dec.)
